Laboratory results published in ChEMBL document CHEMBL1142250, “Discovery of azetidinone acids as conformationally-constrained dual PPARalpha/gamma agonists” (Bioorg Med Chem Lett, 2008).

target: Cytochrome P450 2C9 (Homo sapiens, UniProt P11712); experiment: Inhibition of CYP2C9; type: ADME; conditions: not given
Sequence (P11712 whole entry): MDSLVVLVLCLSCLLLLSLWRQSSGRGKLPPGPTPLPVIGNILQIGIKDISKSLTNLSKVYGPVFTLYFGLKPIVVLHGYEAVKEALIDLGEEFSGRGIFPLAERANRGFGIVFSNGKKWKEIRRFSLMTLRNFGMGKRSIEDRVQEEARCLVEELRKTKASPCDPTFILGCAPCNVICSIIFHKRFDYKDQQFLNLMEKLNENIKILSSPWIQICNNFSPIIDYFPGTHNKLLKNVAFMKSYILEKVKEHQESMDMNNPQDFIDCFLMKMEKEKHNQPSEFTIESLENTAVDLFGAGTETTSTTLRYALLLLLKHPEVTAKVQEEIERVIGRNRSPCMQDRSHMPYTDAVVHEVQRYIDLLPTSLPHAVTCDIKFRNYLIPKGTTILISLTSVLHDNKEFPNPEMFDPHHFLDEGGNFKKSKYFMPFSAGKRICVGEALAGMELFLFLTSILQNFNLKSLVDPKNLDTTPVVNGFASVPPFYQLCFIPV

In order of falling IC50:
1. Cc1oc(-c2ccccc2)nc1CCOc1ccc(C[C@H]2C(=O)N(c3ccc(C(C)(C)C)cc3)[C@H]2C(=O)O)cc1  3000 nM
2. Cc1oc(-c2ccccc2)nc1CCOc1ccc(C[C@@H]2C(=O)N(c3ccc(C(C)(C)C)cc3)[C@@H]2C(=O)O)cc1  2300 nM
3. Cc1oc(-c2ccccc2)nc1CCOc1cccc(C[C@H]2C(=O)N(c3ccc(C(C)(C)C)cc3)[C@H]2C(=O)O)c1  670 nM
4. Cc1oc(-c2cccc(Cl)c2)nc1CCOc1cccc(C[C@@H]2C(=O)N(c3ccc(C(C)(C)C)cc3)[C@@H]2C(=O)O)c1  670 nM
5. Cc1oc(-c2ccccc2)nc1CCOc1cccc(C[C@@H]2C(=O)N(c3ccc(C(C)(C)C)cc3)[C@@H]2C(=O)O)c1  230 nM

tested on: Mus musculus; experiment: Decrease in plasma glucose level in db/db mouse at 10 mg/kg/day, po qd after 14 days; type: functional; parameters: scale not given: the % may be the effect or the level left; conditions: not given

With Cc1oc(-c2ccccc2)nc1CCOc1cccc(C[C@@H]2C(=O)N(c3ccc(C(C)(C)C)cc3)[C@@H]2C(=O)O)c1 the Activity was -17%.

target: T1, Cytochrome P450 3A4 (Homo sapiens, UniProt P08684); experiment: Inhibition of CYP3A4 in presence of 7-benzyloxy-4-trifluoromethyl coumarin substrate; type: ADME; conditions: not given
T1 sequence (P08684 whole entry): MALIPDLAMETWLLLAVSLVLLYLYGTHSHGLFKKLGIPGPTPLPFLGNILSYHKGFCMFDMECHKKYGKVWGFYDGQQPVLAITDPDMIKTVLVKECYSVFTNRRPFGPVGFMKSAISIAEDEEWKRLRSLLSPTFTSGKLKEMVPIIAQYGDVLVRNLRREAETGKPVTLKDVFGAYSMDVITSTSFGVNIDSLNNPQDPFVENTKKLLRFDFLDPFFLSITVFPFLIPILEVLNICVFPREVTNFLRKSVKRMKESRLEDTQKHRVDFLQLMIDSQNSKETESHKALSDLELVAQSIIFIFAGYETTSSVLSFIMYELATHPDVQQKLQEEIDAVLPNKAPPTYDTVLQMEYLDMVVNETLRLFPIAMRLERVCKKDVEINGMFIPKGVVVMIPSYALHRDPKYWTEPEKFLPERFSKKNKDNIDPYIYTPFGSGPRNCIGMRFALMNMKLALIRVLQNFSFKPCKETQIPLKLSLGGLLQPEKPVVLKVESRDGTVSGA

Cc1oc(-c2ccccc2)nc1CCOc1ccc(C[C@H]2C(=O)N(c3ccc(C(C)(C)C)cc3)[C@H]2C(=O)O)cc1 and Cc1oc(-c2ccccc2)nc1CCOc1ccc(C[C@@H]2C(=O)N(c3ccc(C(C)(C)C)cc3)[C@@H]2C(=O)O)cc1 cannot be ordered by IC50: over 40 µM for the first, over 40 µM for the second.

Cc1oc(-c2ccccc2)nc1CCOc1cccc(C[C@@H]2C(=O)N(c3ccc(C(C)(C)C)cc3)[C@@H]2C(=O)O)c1 and Cc1oc(-c2ccccc2)nc1CCOc1cccc(C[C@H]2C(=O)N(c3ccc(C(C)(C)C)cc3)[C@H]2C(=O)O)c1 are within 1.5-fold of each other in IC50: 17 µM for the first, 20 µM for the second.

target: T2, Peroxisome proliferator-activated receptor gamma (Homo sapiens, UniProt P37231); experiment: Inhibition of PPARgamma; conditions: not given
T2 sequence (P37231 whole entry): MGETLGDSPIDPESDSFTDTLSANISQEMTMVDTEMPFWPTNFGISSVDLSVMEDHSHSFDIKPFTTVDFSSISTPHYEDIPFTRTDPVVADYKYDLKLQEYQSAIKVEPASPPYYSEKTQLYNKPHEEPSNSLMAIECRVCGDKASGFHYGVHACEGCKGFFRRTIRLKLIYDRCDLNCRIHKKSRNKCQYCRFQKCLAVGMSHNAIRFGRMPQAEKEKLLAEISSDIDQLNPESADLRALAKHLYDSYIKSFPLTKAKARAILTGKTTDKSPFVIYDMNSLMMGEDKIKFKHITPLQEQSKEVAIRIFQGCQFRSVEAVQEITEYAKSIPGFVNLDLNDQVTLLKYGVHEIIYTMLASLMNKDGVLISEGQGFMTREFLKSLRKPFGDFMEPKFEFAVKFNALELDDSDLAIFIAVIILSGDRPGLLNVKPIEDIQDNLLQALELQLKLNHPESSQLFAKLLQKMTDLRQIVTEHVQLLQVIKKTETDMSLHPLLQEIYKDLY

In order of rising IC50:
1. Cc1oc(-c2ccccc2)nc1CCOc1cccc(C[C@@H]2C(=O)N(c3ccc(C(C)(C)C)cc3)[C@@H]2C(=O)O)c1  40 nM
2. Cc1oc(-c2ccccc2)nc1CCOc1ccc(C[C@@H]2C(=O)N(c3ccc(C(C)(C)C)cc3)[C@@H]2C(=O)O)cc1  110 nM
3. Cc1oc(-c2cccc(Cl)c2)nc1CCOc1cccc(C[C@@H]2C(=O)N(c3ccc(C(C)(C)C)cc3)[C@@H]2C(=O)O)c1  250 nM
4. Cc1oc(-c2ccccc2)nc1CCOc1cccc(C[C@H]2C(=O)N(c3ccc(C(C)(C)C)cc3)[C@H]2C(=O)O)c1  800 nM
5. Cc1oc(-c2ccccc2)nc1CCOc1ccc(C[C@H]2C(=O)N(c3ccc(C(C)(C)C)cc3)[C@H]2C(=O)O)cc1  4240 nM

target: T3, Peroxisome proliferator-activated receptor alpha (Homo sapiens, UniProt Q07869); experiment: Agonist activity at PPARalpha in HEK293 cells by GAL4 transactivation assay; type: functional, cell-based; conditions: not given
T3 sequence (Q07869 whole entry): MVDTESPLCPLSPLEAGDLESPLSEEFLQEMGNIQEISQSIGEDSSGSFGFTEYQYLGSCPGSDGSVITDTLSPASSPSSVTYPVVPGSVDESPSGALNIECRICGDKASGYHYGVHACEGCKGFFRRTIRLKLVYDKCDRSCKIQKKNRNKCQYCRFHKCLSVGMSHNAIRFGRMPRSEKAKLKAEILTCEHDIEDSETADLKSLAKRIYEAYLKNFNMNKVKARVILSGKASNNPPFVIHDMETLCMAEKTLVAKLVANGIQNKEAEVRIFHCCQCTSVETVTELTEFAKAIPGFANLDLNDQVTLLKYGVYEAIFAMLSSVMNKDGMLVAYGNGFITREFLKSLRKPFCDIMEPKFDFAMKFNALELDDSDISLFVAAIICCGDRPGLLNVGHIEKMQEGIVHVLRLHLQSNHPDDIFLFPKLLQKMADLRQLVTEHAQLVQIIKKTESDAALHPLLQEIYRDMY

In order of rising EC50:
1. Cc1oc(-c2ccccc2)nc1CCOc1ccc(C[C@@H]2C(=O)N(c3ccc(C(C)(C)C)cc3)[C@@H]2C(=O)O)cc1  10 nM
2. Cc1oc(-c2ccccc2)nc1CCOc1cccc(C[C@@H]2C(=O)N(c3ccc(C(C)(C)C)cc3)[C@@H]2C(=O)O)c1  40 nM
3. Cc1oc(-c2cccc(Cl)c2)nc1CCOc1cccc(C[C@@H]2C(=O)N(c3ccc(C(C)(C)C)cc3)[C@@H]2C(=O)O)c1  60 nM
4. Cc1oc(-c2ccccc2)nc1CCOc1ccc(C[C@H]2C(=O)N(c3ccc(C(C)(C)C)cc3)[C@H]2C(=O)O)cc1  970 nM
5. Cc1oc(-c2ccccc2)nc1CCOc1cccc(C[C@H]2C(=O)N(c3ccc(C(C)(C)C)cc3)[C@H]2C(=O)O)c1  5400 nM

target: T4, Peroxisome proliferator-activated receptor alpha (Homo sapiens) (UniProt Q07869); experiment: Agonist activity at PPARalpha in HEK293 cells at 1 uM by GAL4 transactivation assay relative to GW-2331; type: functional, cell-based; conditions: not given
T4 sequence (whole entry): T3 sequence (Q07869 whole entry)

Cc1oc(-c2ccccc2)nc1CCOc1ccc(C[C@@H]2C(=O)N(c3ccc(C(C)(C)C)cc3)[C@@H]2C(=O)O)cc1 and Cc1oc(-c2cccc(Cl)c2)nc1CCOc1cccc(C[C@@H]2C(=O)N(c3ccc(C(C)(C)C)cc3)[C@@H]2C(=O)O)c1 cannot be ordered by Intrinsic activity: over 90% for the first, over 90% for the second.

target: Cytochrome P450 2C19 (Homo sapiens, UniProt P33261); experiment: Inhibition of CYP2C19; type: ADME; conditions: not given
Sequence (P33261 whole entry): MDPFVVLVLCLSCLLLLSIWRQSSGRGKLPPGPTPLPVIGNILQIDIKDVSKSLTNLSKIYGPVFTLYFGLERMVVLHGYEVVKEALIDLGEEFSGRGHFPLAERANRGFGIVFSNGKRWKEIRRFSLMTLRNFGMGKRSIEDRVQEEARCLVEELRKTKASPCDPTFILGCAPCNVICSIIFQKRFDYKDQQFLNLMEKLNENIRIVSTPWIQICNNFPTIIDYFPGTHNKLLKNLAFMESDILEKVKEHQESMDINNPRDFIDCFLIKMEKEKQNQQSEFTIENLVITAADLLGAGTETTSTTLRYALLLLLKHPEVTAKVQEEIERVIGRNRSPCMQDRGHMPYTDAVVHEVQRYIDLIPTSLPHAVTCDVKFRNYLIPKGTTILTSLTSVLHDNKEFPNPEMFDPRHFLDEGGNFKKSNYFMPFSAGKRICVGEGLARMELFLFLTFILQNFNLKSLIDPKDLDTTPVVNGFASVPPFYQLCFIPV

Work on Cc1oc(-c2cccc(Cl)c2)nc1CCOc1cccc(C[C@@H]2C(=O)N(c3ccc(C(C)(C)C)cc3)[C@@H]2C(=O)O)c1 yielded an IC50 of 5.3 µM.

tested on: not listed separately; experiment: Drug concentration in db/db mouse plasma at 10 mg/kg/day, po qd after 14 days; type: ADME, organism-based; parameters: route oral; conditions: not given

With Cc1oc(-c2ccccc2)nc1CCOc1cccc(C[C@@H]2C(=O)N(c3ccc(C(C)(C)C)cc3)[C@@H]2C(=O)O)c1 the concentration at 336 h was 870 nM.

tested on: Liver; experiment: Drug concentration in db/db mouse liver at 10 mg/kg/day, po qd after 14 days; type: ADME, organism-based; parameters: route oral; conditions: in vivo, 336 h

For Cc1oc(-c2ccccc2)nc1CCOc1cccc(C[C@@H]2C(=O)N(c3ccc(C(C)(C)C)cc3)[C@@H]2C(=O)O)c1, the Drug uptake was 7.4 nmol/g.

target: T1, Cytochrome P450 3A4; experiment: Inhibition of CYP3A4 in presence of 7-benzyloxyresorufin substrate; type: ADME; conditions: not given

Going from Cc1oc(-c2ccccc2)nc1CCOc1ccc(C[C@H]2C(=O)N(c3ccc(C(C)(C)C)cc3)[C@H]2C(=O)O)cc1 to Cc1oc(-c2ccccc2)nc1CCOc1ccc(C[C@@H]2C(=O)N(c3ccc(C(C)(C)C)cc3)[C@@H]2C(=O)O)cc1, the IC50 falls from over 40 µM to 28 µM.

Cc1oc(-c2ccccc2)nc1CCOc1cccc(C[C@@H]2C(=O)N(c3ccc(C(C)(C)C)cc3)[C@@H]2C(=O)O)c1 and Cc1oc(-c2cccc(Cl)c2)nc1CCOc1cccc(C[C@@H]2C(=O)N(c3ccc(C(C)(C)C)cc3)[C@@H]2C(=O)O)c1 are within 1.5-fold of each other in IC50: 19 µM for the first, 20 µM for the second.

tested on: Mus musculus; experiment: Decrease in plasma triglyceride level in db/db mouse at 10 mg/kg/day, po qd after 14 days; type: functional; parameters: scale not given: the % may be the effect or the level left; conditions: not given

With Cc1oc(-c2ccccc2)nc1CCOc1cccc(C[C@@H]2C(=O)N(c3ccc(C(C)(C)C)cc3)[C@@H]2C(=O)O)c1 the Activity was -52%.

tested on: Mus musculus; experiment: Decrease in plasma triglyceride level in db/db mouse at 10 mg/kg/day, po qd after 3 weeks; type: functional; parameters: scale not given: the % may be the effect or the level left; conditions: not given

In the case of Cc1oc(-c2ccccc2)nc1CCOc1cccc(C[C@@H]2C(=O)N(c3ccc(C(C)(C)C)cc3)[C@@H]2C(=O)O)c1, the Activity is reported as 61%.

target: T3, Peroxisome proliferator-activated receptor alpha; conditions: not given

Compared with Cc1oc(-c2ccccc2)nc1CCOc1ccc(C[C@H]2C(=O)N(c3ccc(C(C)(C)C)cc3)[C@H]2C(=O)O)cc1, Cc1oc(-c2ccccc2)nc1CCOc1ccc(C[C@@H]2C(=O)N(c3ccc(C(C)(C)C)cc3)[C@@H]2C(=O)O)cc1 is lower in IC50: over 15000 nM for the first, 790 nM for the second. The second is the more potent here.

Going from Cc1oc(-c2ccccc2)nc1CCOc1cccc(C[C@@H]2C(=O)N(c3ccc(C(C)(C)C)cc3)[C@@H]2C(=O)O)c1 to Cc1oc(-c2ccccc2)nc1CCOc1cccc(C[C@H]2C(=O)N(c3ccc(C(C)(C)C)cc3)[C@H]2C(=O)O)c1, the IC50 rises from 80 nM to over 15000 nM.

In the case of Cc1oc(-c2cccc(Cl)c2)nc1CCOc1cccc(C[C@@H]2C(=O)N(c3ccc(C(C)(C)C)cc3)[C@@H]2C(=O)O)c1, the IC50 is reported as 860 nM.

target: T2, Peroxisome proliferator-activated receptor gamma; conditions: not given

In order of rising EC50:
1. Cc1oc(-c2ccccc2)nc1CCOc1ccc(C[C@@H]2C(=O)N(c3ccc(C(C)(C)C)cc3)[C@@H]2C(=O)O)cc1  4 nM
2. Cc1oc(-c2cccc(Cl)c2)nc1CCOc1cccc(C[C@@H]2C(=O)N(c3ccc(C(C)(C)C)cc3)[C@@H]2C(=O)O)c1  100 nM
3. Cc1oc(-c2ccccc2)nc1CCOc1cccc(C[C@@H]2C(=O)N(c3ccc(C(C)(C)C)cc3)[C@@H]2C(=O)O)c1  120 nM
4. Cc1oc(-c2ccccc2)nc1CCOc1cccc(C[C@H]2C(=O)N(c3ccc(C(C)(C)C)cc3)[C@H]2C(=O)O)c1  410 nM
5. Cc1oc(-c2ccccc2)nc1CCOc1ccc(C[C@H]2C(=O)N(c3ccc(C(C)(C)C)cc3)[C@H]2C(=O)O)cc1  500 nM
